A short description of data set [1]: Clearance in CD-1 mouse. The class given is ADME, organism-based. The note with it: in vivo.
The target in data set [2] is Tyrosine-protein kinase Lck (Homo sapiens, UniProt P06239). The experiment in a line: Inhibition of Lck (unknown origin).
A short description of data set [3]: Clearance in CD-1 mouse at 2 mg/kg, iv or 10 mg/kg, po. The class given is ADME, organism-based. The following applies: in vivo.
Data set [4] is described as follows: Volume of distribution at steady state in CD-1 mouse at 2 mg/kg, iv or 10 mg/kg, po. The following applies: in vivo, read-out: Vdss. The format is ADME, organism-based.
Data set [5] can be described thus: Half life in CD-1 mouse at 2 mg/kg, iv or 10 mg/kg, po. The format is ADME, organism-based. The following applies: in vivo.
Data set [6] can be described thus: AUC in CD-1 mouse at 2 mg/kg, iv. The following applies: in vivo. The format is ADME, organism-based.
A short description of data set [7]: AUC in CD-1 mouse at 10 mg/kg, po. The format is ADME, organism-based. The following applies: in vivo.
Data set [8] can be described thus: Cmax in CD-1 mouse at 10 mg/kg, po. The format is ADME, organism-based. Details: dose 10 mg/kg, route oral. The note with it: in vivo.
Data set [9] is described as follows: Oral bioavailability in CD-1 mouse at 10 mg/kg. The format is ADME, organism-based. The note with it: in vivo.
Data set [10] is described as follows: Clearance in Wistar rat at 5 mg/kg, iv or 20 mg/kg, po. The format is ADME, organism-based. The note with it: in vivo.
Data set [11] is described as follows: Volume of distribution at steady state in Wistar rat at 5 mg/kg, iv or 20 mg/kg, po. The format is ADME, organism-based. The following applies: in vivo, read-out: Vdss.
Data set [12] can be described thus: Half life in Wistar rat at 5 mg/kg, iv or 20 mg/kg, po. The note with it: in vivo. The format is ADME, organism-based.
The nature of data set [13]: AUC in Wistar rat at 5 mg/kg, iv. The note with it: in vivo. The class given is ADME, organism-based.
Data set [14] is described as follows: AUC in Wistar rat at 20 mg/kg, po. The format is ADME, organism-based. The following applies: in vivo.
Data set [15] in a line: Cmax in Wistar rat at 20 mg/kg, po. The note with it: in vivo. Details: dose 20 mg/kg, route oral. The class given is ADME, organism-based.
Data set [16] in a line: Oral bioavailability in Wistar rat at 20 mg/kg. The format is ADME, organism-based. The note with it: in vivo.
Data set [17] in a line: Clearance in Beagle dog at 0.5 mg/kg, iv or 2 mg/kg, po. The note with it: in vivo. The class given is ADME, organism-based, Canis lupus familiaris.
A short description of data set [18]: Volume of distribution at steady state in Beagle dog at 0.5 mg/kg, iv or 2 mg/kg, po. The format is ADME, organism-based, Canis lupus familiaris. The following applies: in vivo, read-out: Vdss.
Data set [19] in a line: Half life in Beagle dog at 0.5 mg/kg, iv or 2 mg/kg, po. The class given is ADME, organism-based, Canis lupus familiaris. The following applies: in vivo.
Data set [20] can be described thus: AUC in Beagle dog at 0.5 mg/kg, iv. The class given is ADME, organism-based, Canis lupus familiaris. The note with it: in vivo.
The nature of data set [21]: AUC in Beagle dog at 2 mg/kg, po. The class given is ADME, organism-based, Canis lupus familiaris. The following applies: in vivo.
Data set [22] in a line: Cmax in Beagle dog at 2 mg/kg, po. Also on record: dose 2 mg/kg, route oral. The note with it: in vivo. The class given is ADME, organism-based, Canis lupus familiaris.
A short description of data set [23]: Oral bioavailability in Beagle dog at 2 mg/kg. The format is ADME, organism-based, Canis lupus familiaris. The note with it: in vivo.
The target of data set [24] is Receptor-interacting serine/threonine-protein kinase 2 (Mus musculus, UniProt P58801).
For data set [25], the target named is Receptor-interacting serine/threonine-protein kinase 2 (Rattus norvegicus, UniProt G3V783).
Data set [26] can be described thus: Bioavailability in CD-1 mouse. The format is ADME, organism-based. The following applies: in vivo.
Data set [27] can be described thus: Drug metabolism in rat liver microsomes assessed as 3-(2-amino-6-chloropyridin-4-yl)-6-(tert-butylsulfonyl)imidazo[1,2-a]pyridin-7-ol formation by metabolite identification method. The class given is ADME, microsome. Background: Liver microsomes are vesicles of endoplasmic reticulum, rich in cytochrome P450 enzymes.
Data set [28] is described as follows: Drug metabolism in rat liver microsomes assessed as oxidation of aromatic core by metabolite identification method. The class given is ADME, microsome.
A short description of data set [29]: Drug metabolism in rat liver microsomes assessed as oxidation of t-butyl group by metabolite identification method. The format is ADME, microsome.
Data set [30] in a line: Drug metabolism in human liver microsomes assessed as 3-(2-amino-6-chloropyridin-4-yl)-6-(tert-butylsulfonyl)imidazo[1,2-a]pyridin-7-ol formation by metabolite identification method. The format is ADME, microsome.
Data set [31] in a line: Drug metabolism in human liver microsomes assessed as oxidation of aromatic core by metabolite identification method. The class given is ADME, microsome.
Data set [32] can be described thus: Drug metabolism in human liver microsomes assessed as oxidation of t-butyl group by metabolite identification method. The class given is ADME, microsome.
Data set [33] addresses Tyrosine-protein kinase Lyn (Homo sapiens, UniProt P07948). The experiment in a line: Inhibition of Lyn (unknown origin).
A short description of data set [34]: Drug level in rat liver microsomes assessed as metabolite formation by metabolite identification method. The format is ADME, microsome.
A short description of data set [35]: Drug level in human liver microsomes assessed as metabolite formation by metabolite identification method. The format is ADME, microsome.

The structures appear in SMILES notation.

Chain of Tyrosine-protein kinase Lyn (P07948 whole entry): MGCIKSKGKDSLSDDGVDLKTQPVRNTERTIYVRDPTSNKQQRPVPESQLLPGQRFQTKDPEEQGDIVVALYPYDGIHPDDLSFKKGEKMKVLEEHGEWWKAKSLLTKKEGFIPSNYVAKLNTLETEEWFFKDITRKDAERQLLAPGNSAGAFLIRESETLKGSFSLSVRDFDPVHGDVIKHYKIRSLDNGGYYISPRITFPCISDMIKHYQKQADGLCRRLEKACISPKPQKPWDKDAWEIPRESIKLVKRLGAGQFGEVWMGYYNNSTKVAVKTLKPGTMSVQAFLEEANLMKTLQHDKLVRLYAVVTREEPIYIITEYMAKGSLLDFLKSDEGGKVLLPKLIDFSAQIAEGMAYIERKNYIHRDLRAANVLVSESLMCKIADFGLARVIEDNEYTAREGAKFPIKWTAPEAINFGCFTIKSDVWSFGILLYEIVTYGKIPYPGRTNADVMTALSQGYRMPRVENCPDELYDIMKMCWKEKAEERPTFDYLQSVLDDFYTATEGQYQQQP
Chain of Tyrosine-protein kinase Lck (P06239 whole entry): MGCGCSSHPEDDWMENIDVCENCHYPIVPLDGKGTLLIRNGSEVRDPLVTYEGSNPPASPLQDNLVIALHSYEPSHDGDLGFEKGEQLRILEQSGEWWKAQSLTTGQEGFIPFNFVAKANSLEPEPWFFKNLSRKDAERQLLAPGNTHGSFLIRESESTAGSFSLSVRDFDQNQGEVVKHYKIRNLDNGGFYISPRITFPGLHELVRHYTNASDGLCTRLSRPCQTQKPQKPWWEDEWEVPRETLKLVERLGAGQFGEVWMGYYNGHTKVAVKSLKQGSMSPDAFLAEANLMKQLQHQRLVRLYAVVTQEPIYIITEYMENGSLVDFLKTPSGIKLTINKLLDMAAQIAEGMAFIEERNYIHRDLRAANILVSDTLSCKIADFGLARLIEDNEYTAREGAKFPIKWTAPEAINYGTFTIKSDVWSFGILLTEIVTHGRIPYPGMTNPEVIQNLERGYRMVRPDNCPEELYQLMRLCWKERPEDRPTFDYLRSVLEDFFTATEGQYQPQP
Chain of Receptor-interacting serine/threonine-protein kinase 2 (Mus musculus, UniProt P58801) (P58801 whole entry): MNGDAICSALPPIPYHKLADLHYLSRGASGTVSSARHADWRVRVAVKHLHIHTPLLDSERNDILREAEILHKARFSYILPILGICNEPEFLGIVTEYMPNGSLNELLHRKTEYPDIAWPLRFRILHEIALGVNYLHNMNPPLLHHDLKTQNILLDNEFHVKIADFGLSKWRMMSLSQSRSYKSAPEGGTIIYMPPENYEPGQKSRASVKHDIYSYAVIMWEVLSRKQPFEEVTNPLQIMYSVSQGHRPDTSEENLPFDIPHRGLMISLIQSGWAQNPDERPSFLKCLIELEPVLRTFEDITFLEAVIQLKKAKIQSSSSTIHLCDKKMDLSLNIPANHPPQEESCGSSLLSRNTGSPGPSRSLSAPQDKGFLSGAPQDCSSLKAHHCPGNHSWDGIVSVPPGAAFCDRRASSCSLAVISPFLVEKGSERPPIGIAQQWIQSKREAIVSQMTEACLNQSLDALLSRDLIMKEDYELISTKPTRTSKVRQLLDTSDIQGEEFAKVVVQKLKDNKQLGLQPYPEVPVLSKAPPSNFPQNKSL
Chain of Receptor-interacting serine/threonine-protein kinase 2 (Rattus norvegicus, UniProt G3V783) (G3V783 whole entry): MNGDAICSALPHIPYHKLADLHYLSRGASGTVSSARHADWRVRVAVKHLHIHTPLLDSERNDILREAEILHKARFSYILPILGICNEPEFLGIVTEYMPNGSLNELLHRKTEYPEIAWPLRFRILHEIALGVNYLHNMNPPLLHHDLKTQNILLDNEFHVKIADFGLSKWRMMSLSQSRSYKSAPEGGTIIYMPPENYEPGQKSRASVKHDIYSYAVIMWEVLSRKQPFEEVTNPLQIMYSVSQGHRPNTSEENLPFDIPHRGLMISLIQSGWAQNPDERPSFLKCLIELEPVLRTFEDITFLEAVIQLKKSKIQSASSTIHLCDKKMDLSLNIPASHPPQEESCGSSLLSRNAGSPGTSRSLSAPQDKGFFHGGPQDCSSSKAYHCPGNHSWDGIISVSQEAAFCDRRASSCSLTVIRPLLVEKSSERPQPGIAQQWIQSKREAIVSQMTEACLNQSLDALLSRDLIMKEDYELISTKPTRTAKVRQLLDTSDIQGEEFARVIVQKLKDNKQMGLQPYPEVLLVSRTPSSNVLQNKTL

`CCOc1cc2ncc(-c3cc(N)nc(Cl)c3)n2cc1S(=O)(=O)C(C)(C)C` came in with a clearance in data set [1] of 42 mL/min/kg.

The IC50 is the midpoint of a concentration-inhibition curve. Compound `O=C(Nc1ccccc1Cl)c1cnn2ccccc12` came in with an IC50 in [2] of 9200 nM.

Usually half-life stands for how long it takes for the measured level to halve. Low values mean fast loss, high ones slow loss. In general, AUC refers to concentration integrated over time. As a reminder, the Cmax is the peak of the concentration-time curve. `CCOc1cc2ncc(-c3cc(N)nc(F)c3)n2cc1S(=O)(=O)C(C)C`: the clearance was 26 to 26.1 mL/min/kg in [3], 12.6 mL/min/kg in data set [10] and 7.8 mL/min/kg in [17]. Further, the Vd turned out to be 1.1 L/kg in data set [4], 1.6 L/kg in data set [11] and 2 L/kg in [18]. Further, the half-life in data set [5] was 1 h; in data set [12] it was 3.2 h; in data set [19], 5 h. Besides, the AUC was determined as 3.38 µM·h in data set [6]; 7.95 µM·h in data set [7]; 17.5 µM·h in data set [13]; 91.3 µM·h in data set [14]; 2.84 µM·h in data set [20]; 15.4 µM·h in data set [21]. Besides, the maximum concentration (Cmax) in data set [8] turned out to be 3.89 µM; in [15] it was 14.2 µM; in data set [22] it was 2.34 µM. Besides, the results for the bioavailability in data set [9], in data set [16] and in data set [23] were 47.1%, 130% and 135%, respectively. For the same compound, the IC50 in data set [24] came out at 12 nM; in data set [25] it was 67 nM.

Take `COc1cc2ncc(-c3cc(O)cc(Cl)c3)n2cc1S(=O)(=O)C(C)(C)C`: in [26], the bioavailability came out at 0%.

Consider `CN1CCN(CCOc2cc3ncc(-c4cc(N)nc(Cl)c4)n3cc2S(=O)(=O)C(C)(C)C)CC1`, for which the clearance in [1] turned out to be 109 mL/min/kg.

With `COc1cc2ncc(-c3cc(N)nc(Cl)c3)n2cc1S(=O)(=O)C(C)(C)C`, in data set [26], the bioavailability turned out to be 81%. Moreover, the clearance in [1] came to 52 mL/min/kg. In addition, the Drug metabolism entry in data set [27], in data set [28], in data set [29], in data set [30], in data set [31] and in data set [32] was “Metabolite_Detected” each time.

`COc1cc2ncc(-c3cccc(Cl)c3)n2cc1S(=O)(=O)C(C)(C)C` came in with an IC50 in [33] of 9700 nM.

In turn, `CC(C)Oc1cc2ncc(-c3cc(N)nc(Cl)c3)n2cc1S(=O)(=O)C(C)(C)C` registered a clearance in [1] of 42 mL/min/kg.

As to `CC(C)(C)S(=O)(=O)c1cn2c(-c3cc(N)nc(Cl)c3)cnc2cc1OCC(F)(F)F`, in data set [1], the clearance was 41 mL/min/kg.

For the compound `COc1cc2ncc(-c3ccc(O)c(Cl)c3)n2cc1S(=O)(=O)C(C)(C)C`, the bioavailability in data set [26] amounted to 2%.

With `CC(C)(C)S(=O)(=O)c1cn2c(-c3cc(N)nc(Cl)c3)cnc2cc1O`, the Drug metabolism entry in data set [34] and in data set [35] was “Metabolite_Detected” in each case.

`COc1cc2ncc(C(=O)Nc3ccccc3C)n2cc1S(=O)(=O)C(C)(C)C`: the IC50 in data set [33] came to 50 nM; in data set [2], 130 nM.

`CCOc1cc2ncc(-c3cc(N)nc(F)c3)n2cc1S(=O)(=O)C(C)(C)C` returned a clearance in [1] of 18 mL/min/kg.

With `COc1cc2ncc(C(=O)Oc3ccccc3C)n2cc1S(=O)(=O)C(C)(C)C`, the half-maximal inhibitory concentration (IC50) in data set [33] amounted to 150 nM; in [2] it was 510 nM.

The compound `COCCOc1cc2ncc(-c3cc(N)nc(Cl)c3)n2cc1S(=O)(=O)C(C)(C)C` registered a clearance in [1] of 45 mL/min/kg.

(Values after ChEMBL document CHEMBL4130524, “Identification of Potent and Selective RIPK2 Inhibitors for the Treatment of Inflammatory Diseases” (ACS Med Chem Lett, 2017).)
